This is an account of results in EP0560232A1, “Novel 7-aminolabdanes, a process for their preparation and their use as pharmaceutical agents” (HOECHST AKTIENGESELLSCHAFT, priority 1992, dated 1993).

One experiment concerns Hypovolemic rats. Nature of the experiment: Blood pressure lowering activity in hypovolemic rats. The format is in vivo. The note with it: for Blood pressure (mm Hg) Initial: before drug. The procedure:
Hypovolemic rats were used for this activity. Hypovolemic rats were prepared by the administration of 100 mg/kg furosemide intra peritoneally 1 hour prior to the actual experiment. After administering furosemide the rats were anesthesised with 1.5 g/kg urethane given i.p. The right carotid artery was cannulated and blood pressure was mentioned on a physiological recorder by connecting the carotial cannula to a pressure transducer. The left jugular vein was cannulated for i.v. administration of test substances - intra duodenal (i.d.) administration is made by exposing a portion of the duodenum through a small incision made in the abdomen below the sternum. Blood pressure was monitored for 10 minutes in case of i.v. administration and for 90 to 120 minutes when the drug was administered by the i.d. route.

For another experiment, the system named is Isolated Rat Portal Vein. The experiment is described as follows: Potassium channel opening activity, isolated rat portal vein model (KCl-induced contractions). To be noted: Dose 10^-6 Mol, 5 min incubation, n=5, mean + SEM, vehicle D.W. or DMSO; for Percent Inhibition Activity KCl20 mM: reduction of KCl 20 mM induced contraction; for Percent Inhibition Activity KCl80 mM: reduction of KCl 80 mM induced contraction. The procedure: Potassium channel opening activity: - Isolated Rat Portal Vein model.
Normal male albino rats of the Charles Foster strain of weight range 200 to 250 g were used.
After sacrificing the animal, abdomen was opened and portal vein was isolated and mounted in an organ bath containing Kerb's solution. The bath was maintained at 37°C and aerated with 95 vol.% oxygen and 5 vol.% carbon dioxide gas mixture. The tissue was kept under 0.5 to 1 g tension and allowed to stabilise for about 30 minutes. KCl₂₀ and KCl₈₀ mM induced cumulative concentrations were measured-through Hugo Sachs Force displacement transducer (K-30) and recorded on 4 channel digital recorder. After taking 2 control responses, the tissue was incubated with test substance for 5 minutes and dose response was repeated. The percent reduction in KCl₂₀ and KCl₈₀ mM induced contractions were calculated from the control values. Standard potassium channel opener selectively blocks the KCl₂₀ induced contractions without affecting the KCl₈₀ mM induced responses. […] The test compounds were administered in a volume of 0.2 ml per concentration. All results are expressed as mean + SEM.

In the case of `C=C[C@@]1(C)CC(=O)[C@H]2[C@](C)(O1)[C@H](N)C=C1C(C)(C)CCC[C@@]12C` [(α)NH2, 7α-Amino-8,13-epoxy-labd-5,14-dien-11-one], in the experiment on Hypovolemic rats (10 mg/kg i.v.), the “Blood pressure % change” value is given as -20.5±3%, the “Blood pressure (mm Hg) Post drug” value was determined as 68±4 mm Hg and the “Blood pressure duration” value amounted to 5 min. Moreover, the “Blood pressure (mm Hg) Initial” value with Hypovolemic rats (group dosed 10 mg/kg i.v.) came out at 87±9 mm Hg. In addition, in the experiment with Isolated Rat Portal Vein, the “Percent Inhibition Activity KCl20 mM” value is reported as 57+9% and the “Percent Inhibition Activity KCl80 mM” value is recorded as 34+9%.
Regarding `C=C[C@@]1(C)CC(=O)[C@H]2[C@](C)(O1)[C@H](NC(C)=O)C=C1C(C)(C)CCC[C@@]12C` [(α)NHCOCH3, 7α-Acetylamino-8,13-epoxy-labd-5,14-dien-11-one], in the experiment on Hypovolemic rats (30 mg/kg i.d.), the “Blood pressure % change” value is given as -15.4±3%, the “Blood pressure (mm Hg) Post drug” value was 80±4 mm Hg and the “Blood pressure duration” value came to 30 min. For the same molecule, the “Blood pressure (mm Hg) Initial” value in the experiment with Hypovolemic rats (group dosed 30 mg/kg i.d.) was found to be 94±3 mm Hg. Further, in the experiment with Isolated Rat Portal Vein, the “Percent Inhibition Activity KCl20 mM” value was 34+10% and the “Percent Inhibition Activity KCl80 mM” value is recorded as 5+2%.
In the case of `C=C[C@@]1(C)CC(=O)[C@@]2(O)[C@](C)(O1)[C@@H](N)C=C1C(C)(C)CC[C@H](O)[C@@]12C` [(β)NH2, 7β-Amino-1α,9α-dihydroxy-8,13-epoxy-labd-5,14-dien-11-one], in the experiment with Hypovolemic rats (10 mg/kg i.v.), the “Blood pressure (mm Hg) Post drug” value is listed as 38±2 mm Hg and the “Blood pressure duration” value is recorded as above 70 min. In addition, the “Blood pressure (mm Hg) Initial” value with Hypovolemic rats (group dosed 10 mg/kg i.v.) is on record as 90±10 mm Hg.
